From the NIST ThermoML archive (doi:10.1016/j.jct.2007.02.009)
± gives the expanded uncertainty stated by the source.

Legend:
[1] = Crystal; Adiabatic calorimetry
[2] = Molar enthalpy of transition or fusion; conditions: Crystal; Adiabatic calorimetry

Triple point temperature [1]: 212.86 ± 0.11 K
Molar enthalpy of transition or fusion [2]: 2.14 ± 0.0311 kcal/mol
Compound: CN(C)C=O [dimethylformamide]
